Laboratory results reported in patent publication US20180296564A1, “METHOD FOR PREVENTING AND/OR TREATING CHRONIC TRAUMATIC ENCEPHALOPATHY - III” (Eustralis Pharmaceuticals Limited (trading as Pressura …, priority 2013, published 2018).

System: tau phosphorylation
Experiment: Tau phosphorylation after concussive injury in the rat (immunohistology)
Assay type: in vivo
Settings: rat concussion model; 3 mg/kg intravenously at 30 min after induction of injury; assessed 3 days after the concussive event
Excerpt: Note that concussive injury in the rat causes extensive tau phosphorylation (B) by 3 days after the concussive event compared to non-injured animals (A). […] Having established that hyperphosphorylated tau accumulates perivascularly following concussive injury, we used an animal model of concussion to investigate whether concussion causes perivascular release of substance P. We developed a rodent model of concussion to replicate the concussive event (Donkin et al., 2004, 7th International Neurotrauma Symposium, pp 75-78, Medimond Publishers, Bologna, Italy) and subsequently determined whether substance P was released after such an event. There was a clear increase in brain perivascular substance P immunoreactivity after the concussive event (FIG. 2). […] Having shown that mechanical injury causes release of substance P after concussive injury, we then investigated whether Emend® reduces tau hyperphosphorlation after concussive injury. […] Note that concussive injury in the rat causes extensive tau phosphorylation (B) by 3 days after the concussive event compared to non-injured animals (A). […] Thus, administration of Emend® prevents tau hyperphosphorylation and thus prevents the development of CTE.

C[C@@H](O[C@H]1OCCN(Cc2nc(=O)[nH][nH]2)[C@H]1c1ccc(F)cc1)c1cc(C(F)(F)F)cc(C(F)(F)F)c1 [Emend®, 5-([(2R,3S)-2-((R)-1-[3,5-bis(trifluoromethyl)phenyl]ethoxy)-3-(4-fluorophenyl)morpholino]methyl)-1H-1,2,4-triazol-3(2H)-one]
effect on tau phosphorylation after concussive injury: almost complete inhibition of tau phosphorylation
